ChEMBL document CHEMBL1201862, “PubChem BioAssay data set” (2004)
“And” between values parts separate entries of the source, which are not always exact repeats. Equal values may be shown once.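 A five-concentration, 48-hour dose response in 96-well plates underlies each endpoint, interpolated linearly between surrounding concentrations. Here, GI50 denotes the concentration required for 50% inhibition of growth.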 The source made the active and inactive calls. Cut-off read from the data, not from the text of the source: active = GI50 up to about 1.1 µM and inactive = higher. Starred links: 1 amine or outer side, 2 acyl side, 3 side chain; linkers in the order of their positions; H or OH if unused. Positions of bridges follow the written chain, without caps; N, C: chain ends. Non-standard residues stand in square brackets, D forms with d. Residues, ends and D or L forms follow the SMILES beside them. Chains are numbered I, II in the order given. Actinocin(1to9) = Cc1c2oc3c(C)ccc(C(=O)[*:2])c3nc-2c(C(=O)[*:1])c(N)c1=O; NMeV = CN[CH](C(=O)O)C(C)C; Sar = CNCC(=O)O

Experiments:
Assay in all cases: NCI anticancer screen, dose series, 48 h
M14 = tested on: M14
SK-MEL-28 = tested on: SK-MEL-28
HCT-116 = tested on: HCT-116
NCI/ADR-RES = tested on: NCI/ADR-RES
NCI-H23 = tested on: NCI-H23
SF-539 = tested on: SF-539
ACHN = tested on: ACHN
T47D = tested on: T47D
HL-60 = tested on: HL-60
SR = tested on: SR
RPMI-8226 = tested on: RPMI-8226
TK-10 = tested on: TK-10
A549 = tested on: A549
KM12 = tested on: KM12
SK-MEL-5 = tested on: SK-MEL-5
OVCAR-8 = tested on: OVCAR-8
K562 = tested on: K562
DMS-273 = tested on: DMS-273
DMS-114 = tested on: DMS-114

SMILES	GI50 (M14)	GI50 (SK-MEL-28)	GI50 (HCT-116)	GI50 (NCI/ADR-RES)	GI50 (NCI-H23)	GI50 (SF-539)	GI50 (ACHN)	GI50 (T47D)	GI50 (HL-60)	GI50 (SR)	GI50 (RPMI-8226)	GI50 (TK-10)	GI50 (A549)	GI50 (KM12)	GI50 (SK-MEL-5)	GI50 (OVCAR-8)	GI50 (K562)	GI50 (DMS-273)	GI50 (DMS-114)
Cc1cc(-c2cc(C)c(O)c(C(C)(C)C)c2)cc(C(C)(C)C)c1O	10.6 µM (inactive) and 12.8 µM (inactive)	16.7 µM (inactive) and 12 µM (inactive)	6.21 µM (inactive) and 10.9 µM (inactive)	11 µM (inactive) and 14 µM (inactive)	10.4 µM (inactive) and 12.9 µM (inactive)	15 µM (inactive) and 18.5 µM (inactive)	10.6 µM (inactive) and 15.7 µM (inactive)	4.53 µM (inactive) and 7 µM (inactive)	12 µM (inactive)	4.09 µM (inactive)	18.9 µM (inactive) and 12.9 µM (inactive)	11.2 µM (inactive) and 12.1 µM (inactive)	9.27 µM (inactive) and 9.59 µM (inactive)	6.07 µM (inactive) and 9.06 µM (inactive)	10.6 µM (inactive) and 14.7 µM (inactive)	15.4 µM (inactive) and 13.4 µM (inactive)	9.25 µM (inactive) and 7.69 µM (inactive)		
COc1c(C(CC(C)C)OC(C)=O)ccc2c1C(=O)OCc1cc(C)cc(O)c1O2 (stereo not drawn)	16.7 µM (inactive)	15.8 µM (inactive)	12.6 µM (inactive)	12.5 µM (inactive)	10.3 µM (inactive)	18.2 µM (inactive)	10.5 µM (inactive)	11.3 µM (inactive)	> 100 µM (inactive)	> 100 µM (inactive)	> 100 µM (inactive)	17.7 µM (inactive)	12.4 µM (inactive)	19.3 µM (inactive)	11.1 µM (inactive)	16.7 µM (inactive)	> 100 µM (inactive)		
CCOC(=O)/C(=C\c1ccc(N(C)C)cc1)S(=O)(=O)C(F)(F)C(F)(F)C(F)(F)C(F)(F)F	> 100 µM (inactive)	> 100 µM (inactive)	> 100 µM (inactive)	> 100 µM (inactive)	> 100 µM (inactive)	> 100 µM (inactive)	> 100 µM (inactive)	> 100 µM (inactive)	> 100 µM (inactive)	> 100 µM (inactive)	> 100 µM (inactive)	13 µM (inactive)	> 100 µM (inactive)	> 100 µM (inactive)	> 100 µM (inactive)	> 100 µM (inactive)	> 100 µM (inactive)		
Cc1c(C)n(COCCO)c2ncnc(N)c12	> 100 µM (inactive)	> 100 µM (inactive)			> 100 µM (inactive)	> 100 µM (inactive)	> 100 µM (inactive)		> 100 µM (inactive)	> 100 µM (inactive)	> 100 µM (inactive)	> 100 µM (inactive)	> 100 µM (inactive)	> 100 µM (inactive)	> 100 µM (inactive)	> 100 µM (inactive)	> 100 µM (inactive)	> 100 µM (inactive)	
COC(=O)C1=C(O)C(C(=O)OC)[C@]2(O)[C@H](C(=O)OC)[C@H]1C[C@@H](c1ccccc1OC)[C@H]2C(=O)OC (stereo partly drawn)	2.88 µM (inactive)	7.87 µM (inactive)	3.65 µM (inactive)	2.61 µM (inactive)	3.52 µM (inactive)	2.71 µM (inactive)	6.25 µM (inactive)	10.4 µM (inactive)	3.29 µM (inactive)	1.93 µM (inactive)	2.17 µM (inactive)	14.1 µM (inactive)	3.85 µM (inactive)	6.14 µM (inactive)	3.64 µM (inactive)	2.86 µM (inactive)	4.38 µM (inactive)		
CNC(=O)N(CCC#N)CCCN(C(=O)NC)c1ccccc1	> 100 µM (inactive)	> 100 µM (inactive)	> 100 µM (inactive)	> 100 µM (inactive)	> 100 µM (inactive)	> 100 µM (inactive)	> 100 µM (inactive)	> 100 µM (inactive)	> 100 µM (inactive)	> 100 µM (inactive)	> 100 µM (inactive)	> 100 µM (inactive)	> 100 µM (inactive)	> 100 µM (inactive)	> 100 µM (inactive)	> 100 µM (inactive)	> 100 µM (inactive)		
CC1=C(C)CC(C#N)(C#N)C(C#N)(C#N)C1	2.86 µM (inactive)	> 10 µM (inactive)	> 4.91 µM (inactive)	> 10 µM (inactive)	> 4.37 µM (inactive)	> 10 µM (inactive)	> 8.79 µM (inactive)	> 5.71 µM (inactive)	1.47 µM (inactive)	0.0802 µM (active)	2.18 µM (inactive)	> 5.05 µM (inactive)	> 10 µM (inactive)	> 10 µM (inactive)	> 6.19 µM (inactive)	> 5.45 µM (inactive)	2.2 µM (inactive)		
CN1CN(c2ccccc2)C2(CCN(C(=O)OC(C)(C)C)CC2)C1=O	> 100 µM (inactive)	> 100 µM (inactive)	> 100 µM (inactive)	> 100 µM (inactive)	> 100 µM (inactive)	> 100 µM (inactive)	> 100 µM (inactive)	> 100 µM (inactive)	> 100 µM (inactive)	> 100 µM (inactive)	98.2 µM (inactive)	> 100 µM (inactive)	> 100 µM (inactive)	> 100 µM (inactive)	> 100 µM (inactive)	> 100 µM (inactive)	75.3 µM (inactive)		
Fc1ccc(F)c(/C=N/C23CC4CC(CC(C4)C2)C3)c1	> 10 µM (inactive)	> 10 µM (inactive)	> 10 µM (inactive)	> 10 µM (inactive)	> 10 µM (inactive)	> 10 µM (inactive)	> 10 µM (inactive)	> 10 µM (inactive)	2.62 µM (inactive)	> 10 µM (inactive)	> 10 µM (inactive)	> 10 µM (inactive)	> 10 µM (inactive)	> 10 µM (inactive)	> 10 µM (inactive)	> 10 µM (inactive)	4.44 µM (inactive)		
Nc1cccc(CCN2CCN(CCCc3ccccc3)CC2)c1	17.6 µM (inactive)	27.5 µM (inactive)	17.6 µM (inactive)	> 100 µM (inactive)	50.2 µM (inactive)	22.2 µM (inactive)	> 100 µM (inactive)	20.3 µM (inactive)	17.2 µM (inactive)	19.2 µM (inactive)	33.2 µM (inactive)	74.1 µM (inactive)	34.4 µM (inactive)	24.9 µM (inactive)	20.1 µM (inactive)	22.6 µM (inactive)	12.9 µM (inactive)		
CCOP(=O)(C[S+](C)[O-])O[C@@H]1C[C@H](C)CC[C@H]1C(C)C (stereo partly drawn)	8.3 µM (inactive)	> 100 µM (inactive)	2.75 µM (inactive)	7.29 µM (inactive)	4.13 µM (inactive)	12.2 µM (inactive)	4.43 µM (inactive)	4.6 µM (inactive)	3.48 µM (inactive)	3.07 µM (inactive)	1.85 µM (inactive)	3.63 µM (inactive)	4.85 µM (inactive)	3.14 µM (inactive)	2.25 µM (inactive)	4.48 µM (inactive)	3.4 µM (inactive)		
C=CC1=CSNN1	> 100 µM (inactive)	> 100 µM (inactive)			> 100 µM (inactive)	> 100 µM (inactive)	> 100 µM (inactive)		> 100 µM (inactive)		> 100 µM (inactive)	> 100 µM (inactive)	> 100 µM (inactive)	> 100 µM (inactive)	> 100 µM (inactive)	> 100 µM (inactive)	> 100 µM (inactive)	> 100 µM (inactive)	> 100 µM (inactive)
O=C(NCCCCNCCCNC(=O)OCc1ccccc1)OCc1ccccc1	18.3 µM (inactive)	18.4 µM (inactive)	24.5 µM (inactive)	36.4 µM (inactive)	> 100 µM (inactive)	21.3 µM (inactive)	43.4 µM (inactive)	18.9 µM (inactive)	20.3 µM (inactive)	23.9 µM (inactive)	39 µM (inactive)	43.7 µM (inactive)	64.4 µM (inactive)	32 µM (inactive)	16.9 µM (inactive)	26.8 µM (inactive)	30.8 µM (inactive)		
Cc1[nH]c(O)nc1C(=O)c1ccc(-n2ccnc2)cc1	> 100 µM (inactive)	> 100 µM (inactive)	> 100 µM (inactive)			> 100 µM (inactive)	> 100 µM (inactive)		> 100 µM (inactive)	> 100 µM (inactive)	> 100 µM (inactive)		> 100 µM (inactive)	> 100 µM (inactive)	> 100 µM (inactive)	> 100 µM (inactive)	> 100 µM (inactive)	> 100 µM (inactive)	> 100 µM (inactive)
O=C(O)CN(c1ccc(F)cc1)S(=O)(=O)c1ccccc1	> 100 µM (inactive)	> 100 µM (inactive)			> 100 µM (inactive)	> 100 µM (inactive)	> 100 µM (inactive)		> 100 µM (inactive)		> 100 µM (inactive)	> 100 µM (inactive)	> 100 µM (inactive)	> 100 µM (inactive)	> 100 µM (inactive)	> 100 µM (inactive)	> 100 µM (inactive)	> 100 µM (inactive)	
CCC(C)C1NC(=O)C(NC(=O)c2c3nc4c(C(=O)NC5C(=O)NC(C(C)CC)C(=O)N6CCCC6C(=O)N(C)CC(=O)N(C)C(C(C)C)C(=O)OC5C)ccc(C)c4oc-3c(C)c(=O)c2N)C(C)OC(=O)C(C(C)C)N(C)C(=O)CN(C)C(=O)C2CCCN2C1=O (stereo not drawn) (I: TIP[Sar][NMeV] / II: TIP[Sar][NMeV]; ester I:1-I:C, II:1-II:C; linker I:N-II:N via Actinocin(1to9); configuration not given here)	< 0.00995 µM (active)	0.00011 µM (active)	< 0.0001 µM (active)	0.296 µM (active)	0.00133 µM (active)	< 0.0001 µM (active)	0.00162 µM (active)	0.00173 µM (active)	< 0.0001 µM (active)	< 0.0001 µM (active)	0.000143 µM (active)	0.0147 µM (active)	0.000753 µM (active)	0.00107 µM (active)	0.000198 µM (active)	0.000262 µM (active)	< 0.0001 µM (active)		
